In US10005767B2, “Compositions and methods for inhibition of the JAK pathway” (Rigel Pharmaceuticals, Inc., priority 2009, dated 2018):
Where two headings read alike, the source gives them in different places.

System: human primary T-cells, IL-2 stimulated proliferation (JAK-1 and JAK-3 dependent; reported as JAK3 activity)
Assay: Human primary T-cell proliferation stimulated by IL-2 (Example 3)
Assay type: cell-based
Conditions: tested under conditions described in Example 3 (IL-2 stimulated human primary T-cell proliferation), read-out: ability to inhibit JAK3 activity, IC50 range (Table V)
In short: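 Peripheral-blood human T-cells pre-activated via TCR/CD28, IL-2-starved overnight, then cultured 72 h at 37 °C with compound in Yssel's medium containing IL-2 (80 U/mL in cell suspension). Proliferation read as viable-cell ATP by CellTiter-Glo luminescence; reduction versus control taken as JAK pathway inhibition.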

SMILES	IC50 (Homo sapiens, T-cell)	IC50
Cc1cnc(Nc2ccc3c(c2)NC(=O)CC3)nc1Nc1ccc2oc(=O)[nH]c2c1 [IV-24, 5-(5-methyl-2-(2-oxo-1,2,3,4-tetrahydroquinolin-7-ylamino)pyrimidin-4-ylamino)benzo[d]oxazol-2(3H)-one]	< 500 nM	–
Cc1cnc(Nc2ccc3c(c2)NC(=O)CO3)nc1Nc1ccc2oc(=O)[nH]c2c1 [IV-25, 6-(5-methyl-4-(2-oxo-2,3-dihydrobenzo[d]oxazol-5-ylamino)pyrimidin-2-ylamino)-2H-benzo[b][1,4]oxazin-3 (4H)-one]	< 500 nM	–
Cc1cnc(Nc2ccc3c(c2)NC(=O)C3(C)C)nc1Nc1ccc2oc(=O)[nH]c2c1 [IV-26, 5-(2-(3,3-dimethyl-2-oxoindolin-6-ylamino)-5-methylpyrimidin-4-ylamino)benzo[d]oxazol-2(3H)-one]	< 500 nM	–
Cc1cnc(Nc2ccc3c(c2)CC(=O)N3C)nc1Nc1ccc2oc(=O)[nH]c2c1 [IV-27, 5-(5-methyl-2-(1-methyl-2-oxoindolin-5-ylamino)pyrimidin-4-ylamino)benzo[d]oxazol-2(3H)-one]	< 500 nM	–
Cc1cnc(Nc2ccc3c(c2)[nH]c(=O)n3C)nc1Nc1ccc2oc(=O)[nH]c2c1 [IV-28, 5-(5-methyl-2-(1-methyl-2-oxo-2,3-dihydro-1H-benzo[d]imidazol-5-ylamino)pyrimidin-4-ylamino)benzo[d]oxazol-2(3H)-one]	< 500 nM	–
Cc1cnc(Nc2ccc3[nH]c(=O)[nH]c3c2)nc1Nc1ccc2oc(=O)[nH]c2c1 [IV-29, 5-(5-methyl-2-(2-oxo-2,3-dihydro-1H-benzo[d]imidazol-5-ylamino)pyrimidin-4-ylamino)benzo[d]oxazol-2(3H)-one]	< 500 nM	–
Cc1cnc(Nc2ccc3c(c2)N(C)C(=O)CCC3)nc1Nc1ccc2oc(=O)[nH]c2c1 [IV-30, 5-(5-methyl-2-(1-methyl-2-oxo-2,3,4,5-tetrahydro-1H-benzo[b]azepin-8-ylamino)pyrimidin-4-ylamino)benzo[d]oxazol-2(3H)-one]	< 500 nM	–
Cc1cnc(Nc2ccc3c(c2)CCCC(=O)N3)nc1Nc1ccc2oc(=O)[nH]c2c1 [IV-31, 5-(5-methyl-2-(2-oxo-2,3,4,5-tetrahydro-1H-benzo[b]azepin-7-ylamino)pyrimidin-4-ylamino)benzo[d]oxazol-2(3H)-one]	< 500 nM	–
Cc1cnc(Nc2ccc3c(c2)OCC(=O)N3)nc1Nc1ccc2oc(=O)[nH]c2c1 [IV-32, 7-(5-methyl-4-(2-oxo-2,3-dihydrobenzo[d]oxazol-5-ylamino)pyrimidin-2-ylamino)-2H-benzo[b][1,4]oxazin-3 (4H)-one]	< 500 nM	–
Cc1cnc(Nc2ccc3c(c2)CCC(=O)N3)nc1Nc1ccc2oc(=O)[nH]c2c1 [IV-33, 5-(5-methyl-2-(2-oxo-1,2,3,4-tetrahydroquinolin-6-ylamino)pyrimidin-4-ylamino)benzo[d]oxazol-2(3H)-one]	< 500 nM	–
Cc1cnc(Nc2ccc3c(c2)CCCC(=O)N3C)nc1Nc1ccc2oc(=O)[nH]c2c1 [IV-34, 5-(5-methyl-2-(1-methyl-2-oxo-2,3,4,5-tetrahydro-1H-benzo[b]azepin-7-ylamino)pyrimidin-4-ylamino)benzo[d]oxazol-2(3H)-one]	< 500 nM	–
Cc1cnc(Nc2ccc3c(c2)OCO3)nc1Nc1ccc2oc(=O)[nH]c2c1 [IV-35, 5-methyl-N2-(3,4-methylenedioxy)phenyl-N4-(2-oxo-2,3-dihydro-1,3-benzoxazol-5-yl)-2,4-pyrimidinediamine]	–	< 500 nM
Cc1cnc(Nc2ccc3c(c2)OC(F)(F)O3)nc1Nc1ccc2oc(=O)[nH]c2c1 [IV-36, N2-(2,2-difluoro-2H-1,3-benzodioxol-5-yl)-5-methyl-N4-(2-oxo-2,3-dihydro-1,3-benzoxazol-5-yl)-2,4-pyrimidinediamine]	< 500 nM	–
Cc1cnc(Nc2ccc3c(c2)OCCO3)nc1Nc1ccc2oc(=O)[nH]c2c1 [IV-37, N2-(3,4-ethylenedioxy)phenyl-5-methyl-N4-(2-oxo-2,3-dihydro-1,3-benzoxazol-5-yl)-2,4-pyrimidinediamine]	–	< 500 nM
Cc1cnc(Nc2ccc3c(c2)OC2(CCCCC2)O3)nc1Nc1ccc2oc(=O)[nH]c2c1 [IV-39, N2-[spiro(2,1′-cyclohexan)-1,3-benzodioxol-5-yl]-5-methyl-N4-(2-oxo-2,3-dihydro-1,3-benzoxazol-5-yl)-2,4-pyrimidinediamine]	–	< 500 nM
Cc1cnc(Nc2cnc3c(c2)c(C)nn3C)nc1Nc1ccc2oc(=O)[nH]c2c1 [IV-40, N2-(1,3-dimethyl-1H-pyrazolo[3,4-b]pyridin-5-yl)-5-methyl-N4-(2-oxo-2,3-dihydro-1,3-benzoxazol-5-yl)-2,4-pyrimidinediamine]	< 500 nM	–
Cc1cnc(Nc2ccc3cnn(C)c3c2)nc1Nc1ccc2oc(=O)[nH]c2c1 [IV-41, 5-methyl-N2-(1-methylindazol-6-yl)-N4-(2-oxo-2,3-dihydro-1,3-benzoxazol-5-yl)-2,4-pyrimidinediamine]	< 500 nM	–
Cc1cnc(Nc2ccc3c(cnn3C)c2)nc1Nc1ccc2oc(=O)[nH]c2c1 [IV-42, 5-methyl-N2-(1-methylindazol-5-yl)-N4-(2-oxo-2,3-dihydro-1,3-benzoxazol-5-yl)-2,4-pyrimidinediamine]	< 500 nM	–

SMILES	IC50 (Homo sapiens, T-cell)	IC50
Cc1cnc(Nc2cnc3onc(C)c3c2)nc1Nc1ccc2oc(=O)[nH]c2c1 [IV-43, 5-methyl-N2-(3-methylisoxazolo[5,4-b]pyridin-5-yl)-N4-(2-oxo-2,3-dihydro-1,3-benzoxazol-5-yl)-2,4-pyrimidinediamine]	< 500 nM	–
COCCN1C(=O)COc2cc(Nc3ncc(C)c(Nc4ccc5oc(=O)[nH]c5c4)n3)ccc21 [IV-44, N2-[4-(2-methoxyethyl)-2H-1,4-benzoxazin-3 (4H)-one-7-yl]-5-methyl-N4-(2-oxo-2,3-dihydro-1,3-benzoxazol-5-yl)-2,4-pyrimidinediamine]	< 500 nM	–
COCCN1C(=O)C(C)(C)Oc2cc(Nc3ncc(C)c(Nc4ccc5oc(=O)[nH]c5c4)n3)cnc21 [IV-45, N2-[2,2-dimethyl-4-(2-methoxyethyl)-2H-pyrido[3,2-b][1,4]oxazin-3(4H)-one-7-yl]-5-methyl-N4-(2-oxo-2,3-dihydro-1,3-benzoxazol-5-yl)-2,4-pyrimidinediamine]	< 500 nM	–
Cc1cnc(Nc2cnc3c(c2)OCC(=O)N3)nc1Nc1ccc2oc(=O)[nH]c2c1 [IV-46, 5-methyl-N4-(2-oxo-2,3-dihydro-1,3-benzoxazol-5-yl)-N2-(2H-pyrido[3,2-b][1,4]oxazin-3 (4H)-one-7-yl)-2,4-pyrimidinediamine]	< 500 nM	–
Cc1cnc(Nc2ccc3c(n2)NC(=O)CO3)nc1Nc1ccc2oc(=O)[nH]c2c1 [IV-47, 5-methyl-N4-(2-oxo-2,3-dihydro-1,3-benzoxazol-5-yl)-N2-(2H-pyrido[3,2-b][1,4]oxazin-3 (4H)-one-6-yl)-2,4-pyrimidinediamine]	–	> 10000 nM
Cc1cnc(Nc2ccc3c(C)n[nH]c3c2)nc1Nc1ccc2oc(=O)[nH]c2c1 [IV-48, 5-methyl-N2-(3-methylindazol-6-yl)-N4-(2-oxo-2,3-dihydro-1,3-benzoxazol-5-yl)-2,4-pyrimidinediamine]	< 500 nM	–
Cc1cnc(Nc2ccc3[nH]nc(C)c3c2)nc1Nc1ccc2oc(=O)[nH]c2c1 [IV-49, 5-methyl-N2-(3-methylindazol-5-yl)-N4-(2-oxo-2,3-dihydro-1,3-benzoxazol-5-yl)-2,4-pyrimidinediamine]	< 500 nM	–
Cc1cnc(Nc2ccc3c(c2)OC(C)(C)C(=O)N3)nc1Nc1ccc2oc(=O)[nH]c2c1 [IV-50, N2-[2,2-dimethyl-2H-1,4-benzoxazin-3(4H)-one-7-yl]-5-methyl-N4-(2-oxo-2,3-dihydro-1,3-benzoxazol-5-yl)-2,4-pyrimidinediamine]	< 500 nM	–
Cc1cccc(Nc2ncc(C)c(Nc3ccc4oc(=O)[nH]c4c3)n2)n1 [IV-51, 5-(5-methyl-2-(6-methylpyridin-2-ylamino)pyrimidin-4-ylamino)benzo[d]oxazol-2(3H)-one]	500 to 5000 nM	–
Cc1ccc(Nc2ncc(C)c(Nc3ccc4oc(=O)[nH]c4c3)n2)nc1 [IV-52, 5-(5-methyl-2-(5-methylpyridin-2-ylamino)pyrimidin-4-ylamino)benzo[d]oxazol-2(3H)-one]	500 to 5000 nM	–
Cc1cnc(Nc2ccc3cnccc3c2)nc1Nc1ccc2oc(=O)[nH]c2c1 [IV-53, 5-[2-(Isoquinolin-6-ylamino)-5-methyl-pyrimidin-4-ylamino]-3H-benzooxazol-2-one]	5000 to 10000 nM	–
Cc1cnc(Nc2ccc3ccccc3c2)nc1Nc1ccc2oc(=O)[nH]c2c1 [IV-54, 5-[5-Methyl-2-(naphthalen-2-ylamino)-pyrimidin-4-ylamino]-3H-benzooxazol-2-one]	< 500 nM	–
COc1cc(Nc2ncc(C)c(Nc3ccc4oc(=O)[nH]c4c3)n2)cc2ccccc12 [IV-55, 5-[2-(4-Methoxy-naphthalen-2-ylamino)-5-methyl-pyrimidin-4-ylamino]-3H-benzooxazol-2-one]	< 500 nM	–
Cc1cnc(Nc2cc(O)c3ccccc3c2)nc1Nc1ccc2oc(=O)[nH]c2c1 [IV-56, 5-[2-(4-Hydroxy-naphthalen-2-ylamino)-5-methyl-pyrimidin-4-ylamino]-3H-benzooxazol-2-one]	5000 to 10000 nM	–
Cc1cnc(Nc2ccc3ccncc3c2)nc1Nc1ccc2oc(=O)[nH]c2c1 [IV-57, 5-[2-(Isoquinolin-7-ylamino)-5-methyl-pyrimidin-4-ylamino]-3H-benzooxazol-2-one]	> 10000 nM	–
COc1ccnc(Nc2ncc(C)c(Nc3ccc4oc(=O)[nH]c4c3)n2)c1 [IV-58, N2-(4-methoxypyridin-2-yl)-5-methyl-N4-(2-oxo-2,3-dihydro-1,3-benzoxazol-5-yl)-2,4-pyrimidinediamine]	> 10000 nM	–
Cc1cnc(Nc2c(F)cc(F)cc2F)nc1Nc1ccc2oc(=O)[nH]c2c1 [IV-59, 5-[5-Methyl-2-(2,4,6-trifluoro-phenylamino)-pyrimidin-4-ylamino]-3H-benzooxazol-2-one]	> 10000 nM	–
